According to US8445532B2, “Use of phthalide derivatives” (priority 2005, dated 2013):
≈ marks a conversion by molar mass, not a printed value.

Experiments:
KBv200 [1] = assay: MTT drug resistance determination to conventional chemotherapeutic drugs; assay type: cell-based, human; settings: for IC50: Homo sapiens, KBv200, drug alone, 68 h, MTT, read-out: IC50; for RF (drug resistant factor): IC50 KBv200 / IC50 KB
Excerpt: (§1) The following cell lines were used: K562 (human chronic myeloid leukemia cell line) and K562/Adr (a cell line with drug-resistance to chemotherapeutic drugs such as Adriamycin induced by a long-term exposure to a low dosage of Adriamycin); KB (human oral epithelia cell line) and KBv200 (a cell line with drug-resistance to chemotherapeutic drugs such as Vincristine induced by a long-term exposure to a low dosage of Vincristine); MCF-7 (human mammary cancer cell line) and MCF-7/Adr (a cell line with drug-resistance to chemotherapeutic drugs such as Adriamycin induced by a long-term exposure to a low dosage of Adriamycin). All the cell lines mentioned above were purchased from Institute of Hematology, Chinese Academy of Medical Sciences.
The multi-drug resistant cell line, of KBv200 is also mainly characterized by the concurrency of multiple resistant mechanisms including the increased expression of P-gp and Bcl-2 family proteins, and the enhanced activity of glyoxalase I, etc. KBv200 is resistant to Vincristine more than 100 folds in comparison with KB, and cross-resistant to […], Daunomycin, Mitoxantrone, Taxol, etc.
(§2) Half-inhibitory concentration (IC50) was calculated by the GraphPad Prism software (San Diego, Calif.). Drug reaction was analyzed by Sigmoldal non-linear regression model.
(§3) The cells at logarithmic phase were collected and added into RPMI 1640 medium (containing 10% fetal bovine serum) to prepare a cell suspension. Then the cell suspension was plated onto a 96-well plate at 100 μl per well (1×10^4 cell/well). Adriamycin, Vincristine, Taxol, cisplatin of different concentration gradients were directly added to the semi-suspending cells (K562 and K562/Adr). The adherent cells were cultured for 24 hours after inoculation so that they could adhere completely, and then the drugs mentioned above in different concentrations were added. There were six parallel repeated wells for every concentration gradient. The medium was added up to a final volume of 200 μl per well. The cells were cultured at the condition of 37° C., saturated humidity, 5% CO2 for 68 hours. 50 μl MTT (2 mg/mL) per well was added. The 96-well plate was centrifuged and the supernatant was removed. Then 120 μl DMSO per well was added and vibrated by vibrator. The OD value was determined at a wavelength of 590 nm by enzyme labeling instrument after the crystal was dissolved completely.
(§4) The calculating method: IC50=drug concentration when the inhibitory rate was 50%.
(§5) Drug resistant factor (RF)=the IC50 of the drug resistant cells/the IC50 of the sensitive cells.

KBv200 cells = assay: Sensitizing effect of PA to conventional chemotherapeutic drugs (MTT); assay type: cell-based, human; settings: for IC50: Homo sapiens, KBv200, drug alone, 68 h, read-out: IC50 of anti-tumor drug, Ctrl (without PA); for RF (Ctrl/S), Adr / RF (Ctrl/S), DDP / RF (Ctrl/S), Taxol / RF (Ctrl/S), Vin: KBv200, IC50 without sensitizer / with sensitizer 10 μg/mL
Protocol: (§6) The cells at logarithmic phase were collected and added into RPMI 1640 medium (containing 10% fetal bovine serum) to make cell suspensions. The cell suspension was added to 96-well plate at 100 μl per well, and the cell number was 2×10^3 (suspending cells) or 1×10^3 (adherent cells) per well. After inoculation, the suspending cells were adapted for half an hour on the plate and the adherent cells were cultivated to allow adhesion before the drugs were added. The control groups (Ctrl) were added with anti-tumor drugs but without PA. The drug concentration of each PA group was 10 μg/mL. The concentrations of chemotherapeutic drugs increased from 0.001 μg/mL to 20 μg/mL. There Were six parallel repeated wells for every concentration gradient. RPMI 1640 was added up to a finally volume of 200 μl per well. The cells were cultured at the condition of 37° C., saturated humidity, 5% CO2 for 68 hours. The MTT was determined and the IC50 was calculated as in example 4.
(§7) The formula of resistant factor: Resistant Factor (RF)=the IC50 without sensitizer/the IC50 with sensitizer.

K562/Adr cells = assay: as above; assay type: cell-based, human; settings: for IC50: Homo sapiens, drug alone, 68 h, read-out: IC50 of anti-tumor drug, Ctrl (without PA); for RF (Ctrl/S), Adr / RF (Ctrl/S), DDP / RF (Ctrl/S), Taxol / RF (Ctrl/S), Vin: IC50 without sensitizer / with sensitizer 10 μg/mL
Protocol: as §6, §7

MCF-7/Adr cells = assay: as above; assay type: cell-based, human; settings: for IC50: Homo sapiens, NCI/ADR-RES, drug alone, 68 h, read-out: IC50 of anti-tumor drug, Ctrl (without PA); for RF (Ctrl/S), Adr / RF (Ctrl/S), DDP / RF (Ctrl/S), Taxol / RF (Ctrl/S), Vin: IC50 without sensitizer / with sensitizer 10 μg/mL
Protocol: as §6, §7

MCF-7/Adr [2] = assay: MTT drug resistance determination to conventional chemotherapeutic drugs; assay type: cell-based, human; settings: for IC50: Homo sapiens, NCI/ADR-RES, MCF-7/Adr, drug alone, 68 h, MTT, read-out: IC50; for RF (drug resistant factor): IC50 MCF-7/Adr / IC50 MCF-7
Excerpt: as §1
Similarly, the multi-drug resistant cell line of MCF-7/Adr is also mainly characterized by the concurrency of multiple resistant mechanisms including the increased expression of P-gp and Bcl-2 family proteins, and the enhanced activity of glyoxalase I, etc.
as §2, §3, §4, §5

K562 = assay: as above; assay type: cell-based, human; settings: Homo sapiens, K562, drug alone, 68 h, read-out: IC50
Excerpt: as §1, §2, §3, §4, §5

MCF-7 = assay: as above; assay type: cell-based, human; settings: Homo sapiens, MCF7, MCF-7, drug alone, 68 h, read-out: IC50
Excerpt: as §1, §2, §3, §4, §5

KB = assay: as above; assay type: cell-based, human; settings: Homo sapiens, drug alone, 68 h, read-out: IC50
Excerpt: as §1, §2, §3, §4, §5

K562/Adr [3] = assay: as above; assay type: cell-based, human; settings: for IC50: Homo sapiens, K562/Adr, drug alone, 68 h, MTT, read-out: IC50; for RF (drug resistant factor): IC50 K562/Adr / IC50 K562
Excerpt: as §1
The multi-drug resistant cell line of K562/Adr is mainly characterized by the concurrency of multiple resistant mechanisms including the increased expression of P-gp and Bcl-2 family proteins, and the enhanced activity of glyoxalase I, etc. K562/Adr is resistant to Adriamycin 20 folds more than K562, and cross-resistant to Vincristine, Daunomycin, Mitoxantrone, Taxol, etc.
as §2, §3, §4, §5

MCF-7/Adr [4] = assay: Growth inhibiting effect of PA on drug resistant cells (MTT); assay type: cell-based; settings: Homo sapiens, NCI/ADR-RES, PA alone, read-out: IC50 growth inhibition
Protocol: (§8) Methods: 1×10^3 cells per well were inoculated onto a 96-well plate. PA was added to K562/Adr directly and to KBV200 and MCF-7/Adr after adhesion. The concentrations of the drugs were 0, 0.1, 0.5, 1, 5, 10, 20, 40, 80, 160 μg/mL. MTT was determined according to the method of example 2 and the IC50 was calculated. The experiment was repeated three times.

K562/Adr [5] = assay: as above; assay type: cell-based; settings: Homo sapiens, PA alone, read-out: IC50 growth inhibition
Protocol: as §8

KBv200 [6] = assay: as above; assay type: cell-based; settings: Homo sapiens; KBv200, PA alone; read-out: IC50 growth inhibition
Protocol: as §8

SMILES	RF (Ctrl/S), Adr (KBv200 cells)	RF (Ctrl/S), DDP (KBv200 cells)	RF (Ctrl/S), Taxol (KBv200 cells)	RF (Ctrl/S), Vin (KBv200 cells)	RF (Ctrl/S), Adr (K562/Adr cells)	RF (Ctrl/S), DDP (K562/Adr cells)	RF (Ctrl/S), Taxol (K562/Adr cells)	RF (Ctrl/S), Vin (K562/Adr cells)	RF (Ctrl/S), Adr (MCF-7/Adr cells)	RF (Ctrl/S), DDP (MCF-7/Adr cells)	RF (Ctrl/S), Taxol (MCF-7/Adr cells)	RF (Ctrl/S), Vin (MCF-7/Adr cells)	IC50 (MCF-7/Adr [4]) [µg/mL]	IC50 (K562/Adr [5]) [µg/mL]	IC50 (KBv200 [6]) [µg/mL]	further results
CC(=O)O[C@H]1C(=O)[C@@]2(C)[C@H]([C@H](OC(=O)c3ccccc3)[C@]3(O)C[C@H](OC(=O)[C@H](O)[C@@H](NC(=O)c4ccccc4)c4ccccc4)C(C)=C1C3(C)C)[C@]1(OC(C)=O)CO[C@@H]1C[C@@H]2O [Taxol, paclitaxel]																IC50 (KBv200 [1]): 1.348 ± 0.002 µg/mL (≈ 1.58 µM); RF (drug resistant factor) (KBv200 [1]): 42.12; IC50 (KBv200 cells): 1.01 ± 0.0421 µg/mL; IC50 (K562/Adr cells): 0.8225 ± 0.0073 µg/mL; IC50 (MCF-7/Adr cells): 0.906 ± 0.213 µg/mL; IC50 (MCF-7/Adr [2]): 0.743 ± 0.21 µg/mL (≈ 0.87 µM); RF (drug resistant factor) (MCF-7/Adr [2]): 17.65; IC50 (K562): 0.0247 ± 0.001 µg/mL (≈ 0.0289 µM); IC50 (MCF-7): 0.0415 ± 0.003 µg/mL (≈ 0.0486 µM); IC50 (KB): 0.032 ± 0.001 µg/mL (≈ 0.0375 µM); IC50 (K562/Adr [3]): 0.932 ± 0.092 µg/mL (≈ 1.09 µM); RF (drug resistant factor) (K562/Adr [3]): 37.72
COc1cccc2c1C(=O)c1c(O)c3c(c(O)c1C2=O)C[C@@](O)(C(=O)CO)C[C@@H]3O[C@H]1C[C@H](N)[C@H](O)[C@H](C)O1 [Adr, doxorubicin]																IC50 (KBv200 [1]): 16.3 ± 1.03 µg/mL (≈ 30 µM); RF (drug resistant factor) (KBv200 [1]): 33.22; IC50 (KBv200 cells): 4.39 ± 0.336 µg/mL; IC50 (K562/Adr cells): 7.67 ± 0.16 µg/mL; IC50 (MCF-7/Adr cells): 6.32 ± 0.775 µg/mL; IC50 (MCF-7/Adr [2]): 19 ± 0.67 µg/mL (≈ 34.9 µM); RF (drug resistant factor) (MCF-7/Adr [2]): 59.07; IC50 (K562): 0.215 ± 0.152 µg/mL (≈ 0.396 µM); IC50 (MCF-7): 0.312 ± 0.143 µg/mL (≈ 0.574 µM); IC50 (KB): 0.49 ± 0.176 µg/mL (≈ 0.902 µM); IC50 (K562/Adr [3]): 14.1 ± 0.35 µg/mL (≈ 25.9 µM); RF (drug resistant factor) (K562/Adr [3]): 65.39; Resistance of K562/Adr relative to K562 (K562/Adr [3]; description of cell line): 20 folds
CCC/C=C1\OC(=O)C2=C1CCC=C2 [S4]	5.331	6.981	6.416	13.02	6.349	3.007	2.412	6.432	3.114	5.125	4.279	26.01	47.3 ± 2.12 (≈ 249 µM)	32.4 ± 1.13 (≈ 170 µM)	32.5 ± 1.03 (≈ 171 µM)	
CCCCC1OC(=O)C2=C1CCC=C2 (single isomer, unassigned) [S1]	10.27	8.063	5.245	13.03	34.99	5.116	24.04	6.214	11.34	3.376	2.685	11.12	37.4 ± 3.15 (≈ 195 µM)	21.4 ± 1.09 (≈ 111 µM)	38.7 ± 2.13 (≈ 201 µM)	
CCCCC1OC(=O)c2cccc(O)c21 (stereo not shown) [S2]	12.23	2.767	10.83	11.40	41.12	5.698	10.57	1.757	6.939	2.565	10.19	6.239	29.4 ± 2.8 (≈ 143 µM)	41.4 ± 3.53 (≈ 201 µM)	26.4 ± 1.98 (≈ 128 µM)	
CCC/C=C1\OC(=O)C2=C1CCC1C(CCC)C3(OC(=O)C4=C3CCC=C4)C21 (stereo not shown) [S7]	2.405	5.939	5.179	7.376	8.257	0.653	1.550	3.963	14.12	6.516	7.023	3.831	39.6 ± 4.61 (≈ 104 µM)	20.4 ± 2.61 (≈ 53.7 µM)	36.9 ± 2.19 (≈ 97 µM)	
CCC/C=C1\OC(=O)C2=C1CCC(O)C2O (single isomer, unassigned) [S5]	16.95	3.208	13.88	2.088	6.264	2.104	2.117	3.109	5.02	4.508	15.62	6.934	39.3 ± 2.14 (≈ 175 µM)	18.3 ± 0.762 (≈ 81.6 µM)	29.8 ± 1.05 (≈ 133 µM)	
CCC/C=C1\OC(=O)C2=C1CC[C@H]1C3C=C4C(=O)O/C(=C\CCC)[C@@]4(CC3)C21 (stereo partly shown) [S6]	2.297	2.622	8.72	3.342	6.249	1.371	1.641	1.833	12.59	2.539	3.932	13.22	44.5 ± 3.99 (≈ 117 µM)	29.8 ± 0.995 (≈ 78.3 µM)	35.2 ± 2.15 (≈ 92.6 µM)	
CCC/C=C1\OC(=O)C2=C1CCC1OC21 (single isomer, unassigned) [S3]	18.97	7.188	2.548	6.169	13.93	2.239	5.740	4.899	4.153	6.708	3.232	4.008	34 ± 3.76 (≈ 165 µM)	39.2 ± 1.58 (≈ 190 µM)	27.4 ± 1.06 (≈ 133 µM)	
CCC/C=C1\OC(=O)C2=CC3CC[C@]21C1C2=C(CC[C@@H]31)C(CCCC)OC2=O (stereo partly shown) [S8]	3.623	4.375	3.87	7.326	1.796	2.722	3.506	7.918	5.639	6.407	1.612	9.597	43.2 ± 3.14 (≈ 113 µM)	31.3 ± 1.87 (≈ 81.8 µM)	38.6 ± 2.17 (≈ 101 µM)	
